Each block holds one molecule with its values, some of them ahead of it.
Columns and labels:
[1] = system: MCF7; assay: Cytotoxicity in human MCF7 cells assessed as reduction in cell viability by MTS assay; format: functional, cell-based; conditions: TDE = time-dependent effect
[2] = Toxicity in zebrafish embryos assessed as induction of general edema by measuring unaffected embryos level at 14 uM after 72 hrs (reference value: 100%); set-up: species or system Danio rerio; conditions: in vivo
[3] = target: T1, Mitogen-activated protein kinase kinase kinase kinase 2 (Homo sapiens) (UniProt Q12851); assay: Binding affinity to wild-type human partial length GCK (M1 to G318 residues) expressed in mammalian expression system assessed as residual binding level at 10 uM by active-site directed competition binding assay based Kinomescan method relative to control
T1 sequence (whole entry): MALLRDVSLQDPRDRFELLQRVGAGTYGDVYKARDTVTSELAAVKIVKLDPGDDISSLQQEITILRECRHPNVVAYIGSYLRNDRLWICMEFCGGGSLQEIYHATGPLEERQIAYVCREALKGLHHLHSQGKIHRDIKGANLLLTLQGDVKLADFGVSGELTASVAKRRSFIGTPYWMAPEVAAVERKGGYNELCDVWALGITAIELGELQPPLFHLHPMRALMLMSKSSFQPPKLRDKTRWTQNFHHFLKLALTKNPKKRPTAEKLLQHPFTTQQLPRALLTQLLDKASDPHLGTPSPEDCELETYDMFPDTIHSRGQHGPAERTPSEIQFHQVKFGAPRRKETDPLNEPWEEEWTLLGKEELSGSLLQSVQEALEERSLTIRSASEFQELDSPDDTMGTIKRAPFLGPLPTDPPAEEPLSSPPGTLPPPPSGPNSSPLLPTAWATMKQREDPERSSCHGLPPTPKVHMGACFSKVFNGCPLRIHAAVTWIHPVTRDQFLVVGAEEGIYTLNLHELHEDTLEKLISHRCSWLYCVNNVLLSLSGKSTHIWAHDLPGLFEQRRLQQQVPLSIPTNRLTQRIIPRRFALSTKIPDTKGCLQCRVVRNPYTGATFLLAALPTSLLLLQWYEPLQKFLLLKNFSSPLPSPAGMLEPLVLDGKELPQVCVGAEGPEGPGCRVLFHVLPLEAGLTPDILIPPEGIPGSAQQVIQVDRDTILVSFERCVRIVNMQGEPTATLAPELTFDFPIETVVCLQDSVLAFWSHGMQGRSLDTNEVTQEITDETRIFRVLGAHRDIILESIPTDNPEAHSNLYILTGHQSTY

[4] = target: Serine/threonine-protein kinase pim-1 (Homo sapiens, UniProt P11309); assay: Binding affinity to wild-type human partial length PIM1 (A15 to K313 residues) expressed in bacterial expression system by active-site directed competition binding assay based Kinomescan method
[5] = target: T1, Mitogen-activated protein kinase kinase kinase kinase 2 (Homo sapiens); assay: Inhibition of GCK (unknown origin) assessed as residual enzyme activity at 1 uM by [33P]-ATP filter binding kinase assay relative to control
[6] = Unbound fraction in mouse plasma at 5 uM incubated for 6 hrs at 37 degC by LC-MS analysis based equilibrium dialysis; format: ADME, cell-free
[7] = target: Sodium-dependent noradrenaline transporter (Homo sapiens, UniProt P23975); assay: Inhibition of [3H]nisoxetine binding to human recombinant NET incubated for 120 mins by scintillation counting method; conditions: 2 h
[8] = target: Serine/threonine-protein kinase DCLK3 (Homo sapiens, UniProt Q9C098); assay: Binding affinity to wild-type human partial length DCAMKL3 (E140 to V628 residues) expressed in bacterial expression system by active-site directed competition binding assay based Kinomescan method
[9] = Toxicity in zebrafish embryos assessed as survival at 1.4 uM after 72 hrs (reference value: 95%); set-up: species or system Danio rerio; conditions: in vivo
[10] = target: Aurora kinase A (Homo sapiens) (UniProt O14965); assay: Binding affinity to wild-type human partial length AURKA (E122 to K401 residues) expressed in mammalian expression system assessed as residual binding level at 10 uM by active-site directed competition binding assay based Kinomescan method relative to control
[11] = target: Serine/threonine-protein kinase pim-2 (Homo sapiens, UniProt Q9P1W9); assay: Binding affinity to wild-type human partial length PIM2 (M1 to E291 residues) expressed in bacterial expression system assessed as residual binding level at 10 uM by active-site directed competition binding assay based Kinomescan method
[12] = system: MCF7; assay: Cytotoxicity in human MCF7 cells assessed as reduction in cell viability incubated for 72 hrs by SRB assay; conditions: MCF7, 72 h
[13] = Toxicity in zebrafish embryos assessed as induction of general edema by measuring unaffected embryos level at 1.4 uM after 72 hrs (reference value: 100%); set-up: species or system Danio rerio; conditions: in vivo
[14] = Toxicity in zebrafish embryos assessed as induction of necrosis by measuring unaffected embryos level at 14 uM after 72 hrs (reference value: 100%); set-up: species or system Danio rerio; conditions: in vivo
[15] = system: A673; assay: Cytotoxicity in human A673 cells assessed as reduction in cell viability incubated for 72 hrs by SRB assay; conditions: A673, 72 h
[16] = target: T2, Mitogen-activated protein kinase kinase kinase 7 (Homo sapiens) (UniProt O43318); assay: Inhibition of TAK1 (unknown origin) assessed as residual enzyme activity at 1 uM by [33P]-ATP filter binding kinase assay relative to control
T2 sequence (whole entry): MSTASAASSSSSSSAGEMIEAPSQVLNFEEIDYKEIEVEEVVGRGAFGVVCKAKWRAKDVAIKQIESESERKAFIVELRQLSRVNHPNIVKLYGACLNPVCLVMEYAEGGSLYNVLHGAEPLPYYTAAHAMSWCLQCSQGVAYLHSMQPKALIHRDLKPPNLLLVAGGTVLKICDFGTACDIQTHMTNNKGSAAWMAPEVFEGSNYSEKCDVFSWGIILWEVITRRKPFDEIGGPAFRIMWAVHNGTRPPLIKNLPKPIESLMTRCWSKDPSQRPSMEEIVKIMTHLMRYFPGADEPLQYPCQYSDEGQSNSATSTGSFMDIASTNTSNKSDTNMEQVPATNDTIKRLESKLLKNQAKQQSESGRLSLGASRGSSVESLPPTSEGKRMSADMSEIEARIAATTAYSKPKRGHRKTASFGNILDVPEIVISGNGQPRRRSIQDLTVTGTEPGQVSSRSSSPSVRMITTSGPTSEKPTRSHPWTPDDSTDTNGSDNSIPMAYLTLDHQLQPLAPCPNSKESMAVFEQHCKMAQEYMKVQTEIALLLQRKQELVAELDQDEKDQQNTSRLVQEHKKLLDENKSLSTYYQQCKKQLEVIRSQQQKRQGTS

[17] = target: Aurora kinase B (Homo sapiens, UniProt Q96GD4); assay: Inhibition of Aurora B (unknown origin) assessed as residual enzyme activity at 1 uM by [33P]-ATP filter binding kinase assay relative to control
[18] = Solubility in assay media (PTU-E3 water); format: physicochemical; conditions: buffer
[19] = target: AMP-activated protein kinase, AMPK (Homo sapiens) (UniProt P54646+O43741+P54619+Q9UGJ0+Q9Y478+Q13131+Q9UGI9); assay: Inhibition of AMPK (unknown origin) assessed as residual enzyme activity at 50 uM by [33P]-ATP filter binding kinase assay relative to control; format: protein-complex assay

SMILES: COc1cc(Br)cc2[nH]cc(-c3cnc(-c4ccc[nH]4)o3)c12
Activity [1]: Tde

SMILES: COc1cc2c(-c3cnc(-c4ccc[nH]4)o3)c[nH]c2cc1Br
Activity [2]: 100%
Activity [3]: 72%
Kd [4]: 1200 nM
Activity [5]: 31%
Fu [6]: 0.3%
inhibition (INH) [7]: Active
Kd [8]: 1800 nM
survival at 72 h, 1.4 µM [9]: 45%
Activity [10]: 80%
Activity [11]: 54%
IC50 [12]: 770 nM
Activity [13]: 100%
Activity [14]: 0%
IC50 [15]: 2200 nM
Activity [16]: 35%
Activity [17]: 33%
solubility [18]: Insoluble

Activity [19]: 28%
SMILES: COc1cc(Br)cc2[nH]cc(-c3oc(-c4ccc[nH]4)nc3I)c12
